Source: PubChem BioAssay (NCI)
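Protocol summary: plate cells (96-well), add compound at 5 concentrations, incubate 48 h, interpolate endpoints linearly. GI50: concentration for 50% inhibition of growth. TGI denotes the concentration required for complete inhibition of growth.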

What was measured:
Assay in all cases: NCI tumour cell line growth inhibition, 48 h
NCI/ADR-RES ovarian = system: NCI/ADR-RES ovarian
KM12 colon = system: KM12 colon
A549 NSCLC = system: A549 NSCLC
UACC-257 melanoma = system: UACC-257 melanoma
SR leukemia = system: SR leukemia
NCI-H522 lung = system: NCI-H522 lung
MDA-MB-231 breast = system: MDA-MB-231 breast
NCI-H226 lung = system: NCI-H226 lung
PC-3 prostate = system: PC-3 prostate
U251 CNS = system: U251 CNS
HCT-116 colon = system: HCT-116 colon
SK-OV-3 ovarian = system: SK-OV-3 ovarian
MOLT-4 leukemia = system: MOLT-4 leukemia
SF-295 CNS = system: SF-295 CNS
COLO 205 colon = system: COLO 205 colon
HS 578T breast = system: HS 578T breast
TK-10 renal = system: TK-10 renal
NCI-H460 lung = system: NCI-H460 lung
HCT-15 colon = system: HCT-15 colon
HCC-2998 colon = system: HCC-2998 colon
HOP-92 NSCLC = system: HOP-92 NSCLC
MDA-MB-435 = system: MDA-MB-435
UO-31 renal = system: UO-31 renal
786-0 renal = system: 786-0 renal
SK-MEL-5 melanoma = system: SK-MEL-5 melanoma
HOP-62 NSCLC = system: HOP-62 NSCLC
NCI-H23 lung = system: NCI-H23 lung
T-47D breast = system: T-47D breast
A498 renal = system: A498 renal
OVCAR-4 ovarian = system: OVCAR-4 ovarian
CCRF-CEM leukemia = system: CCRF-CEM leukemia
ACHN renal = system: ACHN renal
M14 melanoma = system: M14 melanoma
SK-MEL-2 melanoma = system: SK-MEL-2 melanoma
EKVX NSCLC = system: EKVX NSCLC
SNB-75 CNS = system: SNB-75 CNS
BT-549 breast = system: BT-549 breast
MCF7 breast = system: MCF7 breast
HL-60(TB) leukemia = system: HL-60(TB) leukemia
RXF 393 renal = system: RXF 393 renal
OVCAR-8 ovarian = system: OVCAR-8 ovarian
CAKI-1 renal = system: CAKI-1 renal
SNB-19 CNS = system: SNB-19 CNS
SF-268 CNS = system: SF-268 CNS
SW-620 colon = system: SW-620 colon
RPMI-8226 leukemia = system: RPMI-8226 leukemia
DU-145 prostate = system: DU-145 prostate
SN12C renal = system: SN12C renal
UACC-62 melanoma = system: UACC-62 melanoma
MALME-3M melanoma = system: MALME-3M melanoma
OVCAR-5 ovarian = system: OVCAR-5 ovarian
SK-MEL-28 melanoma = system: SK-MEL-28 melanoma
HT29 colon = system: HT29 colon
SF-539 CNS = system: SF-539 CNS
LOX IMVI melanoma = system: LOX IMVI melanoma
K-562 leukemia = system: K-562 leukemia
IGROV1 ovarian = system: IGROV1 ovarian

## NS(=O)(=O)c1ccc(Nc2nc(N/N=C/c3ccccn3)nc(Nc3ccccc3)n2)cc1
NCI/ADR-RES ovarian
  GI50: 3080 nM
  TGI: > 100000 nM
KM12 colon
  GI50: 2190 nM
  TGI: 5140 nM
A549 NSCLC
  GI50: 2290 nM
  TGI: 5360 nM
UACC-257 melanoma
  GI50: 2140 nM
  TGI: 5390 nM
SR leukemia
  GI50: 342 nM
  TGI: > 100000 nM
NCI-H522 lung
  GI50: 431 nM
  TGI: 3420 nM
MDA-MB-231 breast
  GI50: 620 nM
  TGI: 7060 nM
NCI-H226 lung
  GI50: 1070 nM
  TGI: 5970 nM
PC-3 prostate
  GI50: 665 nM
  TGI: > 100000 nM
U251 CNS
  GI50: 514 nM
  TGI: > 100000 nM
HCT-116 colon
  GI50: 395 nM
  TGI: > 100000 nM
SK-OV-3 ovarian
  GI50: 773 nM
  TGI: 3920 nM
MOLT-4 leukemia
  GI50: 495 nM
  TGI: > 39700 nM
SF-295 CNS
  GI50: 1720 nM
  TGI: 7100 nM
COLO 205 colon
  GI50: 523 nM
  TGI: 1950 nM
HS 578T breast
  GI50: 1670 nM
  TGI: 5970 nM
TK-10 renal
  GI50: 1100 nM
  TGI: 5260 nM
NCI-H460 lung
  GI50: 2430 nM
  TGI: 6630 nM
HCT-15 colon
  GI50: 1740 nM
  TGI: > 100000 nM
HCC-2998 colon
  GI50: 703 nM
  TGI: 3480 nM
HOP-92 NSCLC
  GI50: 853 nM
  TGI: 4820 nM
MDA-MB-435
  GI50: 917 nM
  TGI: 2390 nM
UO-31 renal
  GI50: 1680 nM
  TGI: 4910 nM
786-0 renal
  GI50: 1060 nM
  TGI: > 100000 nM
SK-MEL-5 melanoma
  GI50: 1020 nM
  TGI: 2340 nM
HOP-62 NSCLC
  GI50: 511 nM
  TGI: 4650 nM
NCI-H23 lung
  GI50: 1510 nM
  TGI: 4430 nM
T-47D breast
  GI50: 346 nM
  TGI: 2730 nM
A498 renal
  GI50: 1570 nM
  TGI: 3180 nM
OVCAR-4 ovarian
  GI50: 460 nM
  TGI: 2590 nM
CCRF-CEM leukemia
  GI50: 395 nM
  TGI: > 100000 nM
ACHN renal
  GI50: 1960 nM
  TGI: 5470 nM
M14 melanoma
  GI50: 1090 nM
  TGI: 2480 nM
SK-MEL-2 melanoma
  GI50: 1280 nM
  TGI: 2670 nM
EKVX NSCLC
  GI50: 1020 nM
  TGI: 5300 nM
SNB-75 CNS
  GI50: 1210 nM
  TGI: 2630 nM
BT-549 breast
  GI50: 898 nM
  TGI: 6920 nM
MCF7 breast
  GI50: 1300 nM
  TGI: 3240 nM
HL-60(TB) leukemia
  GI50: 709 nM
  TGI: > 28900 nM
RXF 393 renal
  GI50: 1240 nM
  TGI: 2910 nM
OVCAR-8 ovarian
  GI50: 498 nM
  TGI: > 100000 nM
CAKI-1 renal
  GI50: 701 nM
  TGI: 4890 nM
SNB-19 CNS
  GI50: 947 nM
  TGI: > 27400 nM
SF-268 CNS
  GI50: 492 nM
  TGI: 4230 nM
SW-620 colon
  GI50: 786 nM
  TGI: > 100000 nM
RPMI-8226 leukemia
  GI50: 2400 nM
  TGI: 6010 nM
DU-145 prostate
  GI50: 855 nM
  TGI: 4900 nM
SN12C renal
  GI50: 1290 nM
  TGI: 6130 nM
UACC-62 melanoma
  GI50: 788 nM
  TGI: 2310 nM
MALME-3M melanoma
  GI50: 1000 nM
  TGI: 2510 nM
OVCAR-5 ovarian
  GI50: 1720 nM
  TGI: 6610 nM
SK-MEL-28 melanoma
  GI50: 809 nM
  TGI: 2300 nM
HT29 colon
  GI50: 1790 nM
  TGI: 5930 nM
SF-539 CNS
  GI50: 683 nM
  TGI: 2530 nM
LOX IMVI melanoma
  GI50: 657 nM
  TGI: 3480 nM
K-562 leukemia
  GI50: 433 nM
  TGI: > 100000 nM
IGROV1 ovarian
  GI50: 1020 nM
  TGI: 5110 nM

## OC1CCN(CCCOc2c3ccccc3nc3c2oc2ccc(Cl)cc23)CC1
NCI/ADR-RES ovarian
  GI50: 579 nM
  TGI: 4910 nM
UACC-257 melanoma
  GI50: 1750 nM
  TGI: 3530 nM
NCI-H522 lung
  GI50: 1110 nM
  TGI: 2730 nM
NCI-H226 lung
  GI50: 1720 nM
  TGI: 3750 nM
PC-3 prostate
  GI50: 1280 nM
  TGI: 4040 nM
HCT-116 colon
  GI50: 414 nM
  TGI: 2360 nM
SK-OV-3 ovarian
  GI50: 2420 nM
  TGI: 7070 nM
SF-295 CNS
  GI50: 1490 nM
  TGI: 6450 nM
COLO 205 colon
  GI50: 755 nM
  TGI: 2210 nM
HS 578T breast
  GI50: 2280 nM
  TGI: 13400 nM
TK-10 renal
  GI50: 2750 nM
  TGI: 18300 nM
NCI-H460 lung
  GI50: 440 nM
  TGI: 1850 nM
HOP-92 NSCLC
  GI50: 713 nM
  TGI: 5040 nM
MDA-MB-435
  GI50: 1230 nM
  TGI: 2560 nM
UO-31 renal
  GI50: 1230 nM
  TGI: 3290 nM
786-0 renal
  GI50: 1080 nM
  TGI: 3610 nM
SK-MEL-5 melanoma
  GI50: 1780 nM
  TGI: 3250 nM
HOP-62 NSCLC
  GI50: 1740 nM
  TGI: 7570 nM
T-47D breast
  GI50: 3540 nM
  TGI: 20700 nM
A498 renal
  GI50: 2530 nM
  TGI: 7590 nM
OVCAR-4 ovarian
  GI50: 1230 nM
  TGI: 3660 nM
ACHN renal
  GI50: 534 nM
  TGI: 10300 nM
M14 melanoma
  GI50: 1450 nM
  TGI: 3690 nM
SK-MEL-2 melanoma
  GI50: 2450 nM
  TGI: 5990 nM
EKVX NSCLC
  GI50: 2410 nM
  TGI: 13200 nM
SNB-75 CNS
  GI50: 1970 nM
  TGI: 10900 nM
BT-549 breast
  GI50: 3040 nM
  TGI: 10100 nM
RXF 393 renal
  GI50: 1020 nM
  TGI: 2310 nM
OVCAR-8 ovarian
  GI50: 991 nM
  TGI: 11900 nM
CAKI-1 renal
  GI50: 710 nM
  TGI: 2290 nM
SNB-19 CNS
  GI50: 1400 nM
  TGI: 18200 nM
SF-268 CNS
  GI50: 1080 nM
  TGI: 10000 nM
SW-620 colon
  GI50: 444 nM
  TGI: 2090 nM
RPMI-8226 leukemia
  GI50: 1330 nM
  TGI: 4030 nM
DU-145 prostate
  GI50: 1060 nM
  TGI: 3570 nM
SN12C renal
  GI50: 883 nM
  TGI: 17200 nM
UACC-62 melanoma
  GI50: 1990 nM
  TGI: 4820 nM
OVCAR-5 ovarian
  GI50: 1710 nM
  TGI: 6040 nM
SK-MEL-28 melanoma
  GI50: 1640 nM
  TGI: 3100 nM
SF-539 CNS
  GI50: 1070 nM
  TGI: 2300 nM
LOX IMVI melanoma
  GI50: 372 nM
  TGI: 1520 nM
IGROV1 ovarian
  GI50: 1250 nM
  TGI: 6280 nM
